According to US6190848A, “Color photographic element containing ballasted triazole derivative and inhibitor releasing coupler” (priority 1999, dated 2001):

Columns and labels:
[1] = Single layer film element contrast (gamma) reduction by DI(A)R couplers, KODAK FLEXICOLOR C-41; settings: DIR tested at 0.055 mmol/m^2, relative to non-inhibitor containing check
Text: The mild inhibitor fragments that are used in this invention are defined as those that cause less than a 45% gamma reduction, or more preferably less than a 40% gamma reduction, relative to a non-inhibitor containing check when coated as the following single layer film element on a cellulose triacetate film support (coverages are in g/m^2):
Overcoat Gelatin at 2.79 and 0.02 bis-vinylsulfonemethylether
Imaging Layer Gelatin at 2.79
Magenta Image Coupler M-1 (dispersed at 80% by
weight in tricresyl phosphate and 20% by weight
N,N-dibutyl-2-butoxy-5-t-octylaniline) at 0.692
DIR being tested at 0.055 mmol/m^2 ( dispersed in twice
its weight in N,N-dibutyllauramide)
Green sensitized AgBrI at 1.08
Samples of each element were given a stepped exposure and processed in the KODAK FLEXICOLOR™ (C-41) process as described in British Journal of Photography Annual, 1988, pp 196-198. Contrast of the elements was determined using the maximum slope between any two density points.

[2] = Bilayer photographic element: interimage (Cg/Cb+g) and relative green sensitivity; settings: for Cg /Cb+g (interimage ratio): Table II, IDIR-2 in blue layer, IEM or CIEM at 7.2×10^-3 mmol/m^2; for interimage effect: bilayer, --N--H group removed
Protocol: Bilayer photographic elements were prepared by coating the following layers on a cellulose triacetate film support (coverages are in g/m^2). Unless otherwise noted, all comparative and inventive compounds were dispersed in twice their own weight of N,N-dibutyllauramide:
Layer 1 (Antihalation Layer): black colloidal elemental silver at 0.34 and gelatin at2.41.
Layer 2 (Receiver Layer): gelatin at 2.79, CDIR-2 at 0.03, coupler M-1 (dispersed as described previously) added at 0.045, comparison material (CIEM) or IEM added at 7.2×10^-3 mmol/m^2 (this corresponds to 1.67 mmol per mole silver as AgBr or 0.96 mmol per mole of silver) dispersed in twice its own weight of N,N-dibutyllauramide and 0.81 green sensitized AgIBr tabular emulsion.
Layer 3 (Interlayer): gelatin at 0.64, ILS-1 at 0.11 and FD-1 at 0.11.
Layer 4 (Causer Layer): gelatin at 2.79, coupler Y-1 at 0.91, 0.79 blue sensitized AgIBr tabular emulsion and the DIR at 0.11 mmol/m^2.
Layer 5 (Overcoat): gelatin at 2.79 and 0.02 bis-vinylsulfonemethylether.
Samples of each element were given a stepped exposure of either green light only or blue and green light combined and processed in the KODAK FLEXICOLOR (C-41) process as described in British Journal of Photography Annual, 1988, pp196-198. Contrast of the elements was determined using the maximum slope between any two density points. In this test, the ratio of the contrast of the green only exposure to the contrast of the green of a blue and green exposure (Cg /Cb+g) is a measure of the interimage. A higher ratio means more inhibition originating from the blue and affecting the green record.
Another set of bilayer experiments were generated in a similar manner to show the effect of IEM laydown (as mmol per mol silver) and DIR variations.

Structure (SMILES)	% Contrast Reduction [1]	Cg /Cb+g (interimage ratio) [2]	interimage effect [2]
CCCCCCCCCCCCCCOc1ccccc1NC(=O)c1cc(Oc2ccc(CSc3nnnn3Cc3ccc(OC)cc3)cc2[N+](=O)[O-])c2ccccc2c1O [CDIR-1]	-55.4%	–	–
CCC(Oc1ccc(C(C)(C)CC)cc1C(C)(C)CC)C(=O)Nc1ccc(N2N=C(N3CCCC3)C(Sc3nnnn3-c3ccccc3)C2=O)cc1 (stereo not shown) [CDIR-2]	-67.1%	–	–
CCCCCCCCCCCCCCOc1ccccc1NC(=O)c1cc(Oc2ccc([N+](=O)[O-])cc2CN(C(=O)Sc2nnnn2-c2ccccc2)C(C)C)c2ccccc2c1O [CDIR-3]	-75.7%	–	–
CCCCCCCCCCCCCCOc1ccccc1NC(=O)c1cc(Oc2ccc(CSc3nnnn3-c3ccccc3)cc2[N+](=O)[O-])c2ccccc2c1O [CDIR-4]	-77.1%	–	–
CCCCCCCCCCCCCCOc1ccccc1NC(=O)c1cc(Oc2ccc(CSc3nnnn3-c3ccccc3)cc2[N+](=O)[O-])c2ccccc2c1O [CDIR-5]	-70.5%	–	–
CCCCCCCCCCCCCCOc1ccccc1NC(=O)c1cc(Sc2nnnn2-c2ccccc2)c2ccccc2c1O [CDIR-6]	-75.4%	–	–
CCCCCCCCCCCCCCCCS(=O)(=O)Nc1ccc(Cl)c(NC(=O)C(Oc2ccc([N+](=O)[O-])cc2CN(CC)C(=O)Sc2nnnn2-c2ccccc2)C(=O)C(C)(C)C)c1 (stereo not shown) [CDIR-7]	-63.9%	–	–
CCCCCCOC(=O)c1nn(C2C(=O)N(c3ccc(NC(=O)C(CC)Oc4ccc(C(C)(C)CC)cc4C(C)(C)CC)cc3)N=C2C)nc1C (stereo not shown) [CDIR-8]	-49.2%	–	–
CCCCCCCCCCC(Oc1ccc(S(=O)(=O)c2ccc(O)cc2)cc1)C(=O)Nc1ccc(N2N=C(C)C(n3nc(C)c(C(=O)OCCCCCC)n3)C2=O)cc1 (stereo not shown) [CDIR-9]	-50.1%	–	–
CCCCCCCCCCCCCCCCS(=O)(=O)Nc1ccc(Cl)c(NC(=O)C(C(=O)C(C)(C)C)n2nc(C)c(C(=O)OCCCCCC)n2)c1 (stereo not shown) [CDIR-10]	-53.8%	–	–
CCCCCCCCCCCCCCCCS(=O)(=O)Nc1ccc(Cl)c(NC(=O)C(C(=O)C(C)(C)C)n2ncc(SCC(=O)OCCCCCC)n2)c1 (stereo not shown) [CDIR-11]	-58.6%	–	–
CCCCCCCC(=O)Nc1ccc2[nH]nnc2c1 [CIEM-1]	–	1.25	–
CCCCC(CC)CNC(=O)c1ccc2[nH]nnc2c1 (stereo not shown) [CIEM-2]	–	1.26	–
CCCCCCCCCOC(=O)c1nc[nH]n1 [CIEM-3]	–	1.23	–
CCCCCCSCCOC(=O)c1nc[nH]n1 [CIEM-4]	–	1.19	–
CCCCCCCCc1nc2ccccc2[nH]1 [CIEM-5]	–	1.19	–
O=S(=O)(NCCc1ccccc1)c1ccc2[nH]nnc2c1 [CIEM-6]	–	1.24	–
CCCSCCCOC(=O)c1ccc2[nH]nnc2c1 [CIEM-7]	–	1.26	–
CCCCCCCCCCOC(=O)CSc1nnc[nH]1 [CIEM-8]	–	1.22	–

Structure (SMILES)	% Contrast Reduction [1]	Cg /Cb+g (interimage ratio) [2]	interimage effect [2]
O=C(Nc1cccc(Oc2ccccc2)c1)c1ccc2[nH]nnc2c1 [CIEM-9]	–	1.30	–
O=C(c1ccc2[nH]nnc2c1)N1CCCc2ccccc21 [CIEM-10]	–	1.18	–
CCCCc1ccc(NC(=O)c2ccc3[nH]nnc3c2)cc1 [CIEM-11]	–	1.26	–
O=C(Oc1ccccc1)c1ccc2[nH]nnc2c1 [CIEM-12]	–	1.24	–
CCC(C)(C)c1ccc(OCCCCC(=O)Nc2ccc3c(c2)nnn3C(=O)N2CCOCC2)c(C(C)(C)CC)c1 [CIEM-13]	–	1.30	the effect is insufficient
CCC(C)(C)c1ccc(OCCCCC(=O)Nc2ccc3c(c2)nnn3C)c(C(C)(C)CC)c1 [CIEM-14]	–	1.31	the effect is insufficient
CCCCCCCCCCCCCCCc1cccc(OCCCCNC(=O)c2ccc3[nH]nnc3c2)c1 [CIEM-15]	–	1.26	–
CCCCCCCCCCCCSc1nc2ccccc2[nH]1 [CIEM-16]	–	1.27	–
CCC(C)(C)c1ccc(OCCCCNC(=O)CSc2nc3ccccc3[nH]2)c(C(C)(C)CC)c1 [CIEM-17]	–	1.23	–
CCCCCCCCCCCCCCCCS(=O)(=O)Nc1cc(CSc2nnnn2CC(=O)OCCC)ccc1Oc1cc(C(N)=O)c(O)c2ccccc12 [IDIR-1]	-34.5%	–	–
CCCCCCCCCCCCCCCCS(=O)(=O)Nc1ccc(Cl)c(NC(=O)C(Oc2ccc([N+](=O)[O-])cc2CN(CC)C(=O)Sc2nnnn2CC(=O)OCCC)C(=O)C(C)(C)C)c1 (stereo not shown) [IDIR-2]	-25.3%	–	–
CCCCCCCCCCCCOc1ccc(C)cc1NC(=O)c1cc(Oc2ccc(CSc3nnnn3CC(=O)OCCC)cc2[N+](=O)[O-])c2ccccc2c1O [IDIR-3]	-24.5%	–	–
CCCOC(=O)Cn1nnnc1SC1C(=O)N(c2ccc(NC(=O)C(CC)Oc3ccc(C(C)(C)CC)cc3C(C)(C)CC)cc2)N=C1N1CCCC1 (stereo not shown) [IDIR-4]	-22.6%	–	–
CCCCCCCCCCCCOC(=O)C(C)OC(=O)c1ccc(Cl)c(NC(=O)C(C(=O)Nc2cc(C(=O)OC(C)C(=O)OCCCCCCCCCCCC)ccc2Cl)n2nnc3cc(Cl)c(Cl)cc32)c1 (stereo not shown) [IDIR-7]	-20.0%	–	–
CCCCCCCCCCCCCCOc1ccccc1NC(=O)c1cc(Sc2nnnn2CC)c2ccccc2c1O [IDIR-8]	-2.4%	–	–
CCCCCCCCCC(=O)Nc1ccc2[nH]nnc2c1 [IEM-B]	–	1.39	–
CCCCCCCCCCCC(=O)Nc1ccc2[nH]nnc2c1 [IEM-C]	–	1.64	–
CCCCCCCCCCC(Oc1ccc(S(=O)(=O)c2ccc(O)cc2)cc1)C(=O)Nc1ccc2[nH]nnc2c1 (stereo not shown) [IEM-D]	–	1.49	–
CCCCCCCCCCCCSc1nc[nH]n1 [IEM-H]	–	1.44	–
